Assay results from ChEMBL document CHEMBL3045127, “Esterase inhibition by synergists in the western flower thrips Frankliniella occidentalis” (Pest Manag Sci, 2011).

Tests used:
[1] = system: Frankliniella occidentalis; experiment: Insecticidal activity against Frankliniella occidentalis MLFOM (western flower thrips); type: functional
[2] = system: Frankliniella occidentalis; experiment: Insecticidal activity against Frankliniella occidentalis FOR (western flower thrips); type: functional, organism-based
[3] = system: Frankliniella occidentalis; experiment: Resistance ratio, LC50 for Frankliniella occidentalis MLFOM (western flower thrips) to LC50 for Frankliniella occidentalis FOR; type: functional
[4] = system: Frankliniella occidentalis; experiment: Insecticidal activity against Frankliniella occidentalis ACR (western flower thrips); type: functional, organism-based
[5] = Inhibition of Frankliniella occidentalis MLFOM (western flower thrips) total esterase activity
[6] = system: Frankliniella occidentalis; experiment: Insecticidal activity against Frankliniella occidentalis MET (western flower thrips); type: functional
[7] = Inhibition of Frankliniella occidentalis FOR (western flower thrips) total esterase activity
[8] = system: Frankliniella occidentalis; experiment: Resistance ratio, LC50 for Frankliniella occidentalis MLFOM (western flower thrips) to LC50 for Frankliniella occidentalis MET; type: functional
[9] = Inhibition of Frankliniella occidentalis MET (western flower thrips) total esterase activity
[10] = Inhibition of Frankliniella occidentalis ACR (western flower thrips) total esterase activity
[11] = system: Frankliniella occidentalis; experiment: Resistance ratio, LC50 for Frankliniella occidentalis MLFOM (western flower thrips) to LC50 for Frankliniella occidentalis ACR; type: functional

## CNC(=O)Oc1cccc(/N=C/N(C)C)c1 [FORMETANATE]
[1]
  LC50: 765 mgAi/L
[2]
  LC50: 20160 mgAi/L
[3]
  RatioLC50: 26

## CNC(=O)Oc1cc(C)c(SC)c(C)c1 [METHIOCARB]
[4]; Frankliniella occidentalis, ACR
  IC50: 2.71 µM
[5]
  IC50: 1.92 µM
[6]
  LC50: 620 mgAi/L
[1]
  LC50: 15 mgAi/L
[2]; Frankliniella occidentalis, FOR
  IC50: 2.93 µM
[7]
  IC50: 2.93 µM
[8]
  RatioLC50: 41
[9]
  IC50: 1.98 µM
[10]
  IC50: 2.71 µM

## CC1(C)[C@H](C(=O)O[C@H](C#N)c2cccc(Oc3ccccc3)c2)[C@@H]1/C=C\C(=O)OC(C(F)(F)F)C(F)(F)F [ACRINATHRIN]
[4]
  LC50: 12870 mgAi/L
[11]
  RatioLC50: 1430
[1]
  LC50: 9 mgAi/L

## CCCCSP(=O)(SCCCC)SCCCC [S,S,S,-TRIBUTYLPHOSPHOROTRITHIOATE]
[5]
  IC50: 0.46 µM
[7]
  IC50: 0.51 µM
[9]
  IC50: 0.52 µM
[10]
  IC50: 0.45 µM

## CCCCOCCOCCOCc1cc2c(cc1CCC)OCO2 [PIPERONYL BUTOXIDE]
[5]
  IC50: 2410 µM
[7]
  IC50: 1910 µM
[9]
  IC50: 2160 µM
[10]
  IC50: 2670 µM
